Source: ChEMBL document CHEMBL5625267, “Glycosidase-activated H2S donorsto enhance chemotherapy efficacy” (Bioorg Med Chem Lett, 2024)
Active and inactive are the calls of the source. The calls are words filed in the database; no cut-off is given here.

Experiments:
[1] = Antiproliferative activity against mouse 3T3 cells assessed as cell viability at 50 uM incubated for 24 hrs by MTT assay relative to control; type: toxicity, cell-based; conditions: NIH3T3 cells, read-out: Activity
HepG2 [2] = experiment: Antiproliferative activity against human HepG2 cells assessed as cell viability at 50 uM incubated for 24 hrs by MTT assay relative to control; type: functional; conditions: read-out: Activity
HepG2 [3] = experiment: Induction of apoptosis in human HepG2 cells at 80 uM incubated for 24 hrs by annexin V-FITC/propidium iodide staining based flow cytometry analysis relative to control; type: functional
HeLa [4] = experiment: Antiproliferative activity against human HeLa cells assessed as cell viability at 80 uM incubated for 24 hrs by MTT assay relative to control; type: functional; conditions: read-out: Activity
HeLa [5] = experiment: Induction of apoptosis in human HeLa cells at 80 uM incubated for 24 hrs by annexin V-FITC/propidium iodide staining based flow cytometry analysis relative to control; type: functional
HepG2 [6] = experiment: Antiproliferative activity against human HepG2 cells assessed as cell viability at 80 uM incubated for 24 hrs by MTT assay relative to control; type: functional; conditions: read-out: Activity
[7] = Release of H2S in PBS at 50 uM at pH 7.4; type: physicochemical; conditions: buffer, pH 7.4, 50 µM
HeLa [8] = experiment: Antiproliferative activity against human HeLa cells assessed as cell viability at 50 uM incubated for 24 hrs by MTT assay relative to control; type: functional; conditions: read-out: Activity
[9] = Antiproliferative activity against mouse 3T3 cells assessed as cell viability at 80 uM incubated for 24 hrs by MTT assay relative to control; type: toxicity, cell-based; conditions: NIH3T3 cells, read-out: Activity
HeLa [10] = experiment: Induction of apoptosis in human HeLa cells assessed as viable cells at 80 uM incubated for 24 hrs by annexin V-FITC/propidium iodide staining based flow cytometry analysis (reference value: 91.7 %); type: functional; conditions: read-out: Activity
HeLa [11] = experiment: Induction of apoptosis in human HeLa cells assessed as late apoptotic cells at 80 uM incubated for 24 hrs by annexin V-FITC/propidium iodide staining based flow cytometry analysis (reference value: 3.95 %); type: functional
HepG2 [12] = experiment: Induction of apoptosis in human HepG2 cells assessed as early apoptotic cells at 80 uM incubated for 24 hrs by annexin V-FITC/propidium iodide staining based flow cytometry analysis (reference value: 1.03 %); type: functional
HeLa [13] = experiment: Induction of apoptosis in human HeLa cells assessed as early apoptotic cells at 80 uM incubated for 24 hrs by annexin V-FITC/propidium iodide staining based flow cytometry analysis (reference value: 3.59 %); type: functional
HepG2 [14] = experiment: Induction of apoptosis in human HepG2 cells assessed as late apoptotic cells at 80 uM incubated for 24 hrs by annexin V-FITC/propidium iodide staining based flow cytometry analysis (reference value: 10.1 %); type: functional
HeLa [15] = experiment: Induction of apoptosis in human HeLa cells assessed as necrotic cells at 80 uM incubated for 24 hrs by annexin V-FITC/propidium iodide staining based flow cytometry analysis (reference value: 0.71 %); type: functional
HepG2 [16] = experiment: Induction of apoptosis in human HepG2 cells assessed as viable cells at 80 uM incubated for 24 hrs by annexin V-FITC/propidium iodide staining based flow cytometry analysis (reference value: 87.1 %); type: functional; conditions: read-out: Activity
HepG2 [17] = experiment: Induction of apoptosis in human HepG2 cells assessed as necrotic cells at 80 uM incubated for 24 hrs by annexin V-FITC/propidium iodide staining based flow cytometry analysis (reference value: 1.63 %); type: functional
HepG2 [18] = experiment: Cytotoxicity against human HepG2 cells assessed as cell viability at 80 uM incubated for 24 hrs by MTT assay relative to control; type: functional; conditions: read-out: Activity
HepG2 [19] = experiment: Cytotoxicity against human HepG2 cells assessed as cell viability at 100 uM incubated for 24 hrs by MTT assay relative to control; type: functional; conditions: read-out: Activity
HepG2 [20] = experiment: Cytotoxicity against human HepG2 cells assessed as cell viability at 100 uM incubated for 24 hrs in presence of doxorubicin by MTT assay relative to control; type: functional; conditions: read-out: Activity
HepG2 [21] = experiment: Cytotoxicity against human HepG2 cells assessed as cell viability at 80 uM incubated for 24 hrs in presence of doxorubicin by MTT assay relative to control; type: functional; conditions: read-out: Activity
HepG2 [22] = experiment: Release of H2S in human HepG2 cells assessed as fold increase in fluorescence intensity at 50 uM incubated for 7 hrs in presence of fluorescent probe WPS-1 measured after 30 mins by confocal imaging analysis; type: ADME, cell-based; conditions: hepg2, 7.5 h
HepG2 [23] = experiment: Cytotoxicity against human HepG2 cells assessed as cell viability at 2 ug/ml incubated for 24 hrs by MTT assay relative to control; type: functional; conditions: read-out: Activity

Row | Activity [7] | SMILES | viability at 24 h, 50 µM [1] | viability at 50 µM (HepG2 [2]) | Activity (HepG2 [3]) | viability at 80 µM (HeLa [4]) | Activity (HeLa [5]) | viability at 80 µM (HepG2 [6]) | viability at 50 µM (HeLa [8]) | viability at 24 h, 80 µM [9] | also measured
1 | 36% | Cc1ccc(NC(=S)OCc2ccc(O[C@@H]3O[C@H](CO)[C@@H](O)[C@H](O)[C@H]3O)cc2)cc1 | 102% | 91% | inactive | 90.8% | inactive | 85.3% | 86.9% | 95% | –
2 | 36% | OC[C@H]1O[C@@H](Oc2ccc(COC(=S)Nc3ccc(C(F)(F)F)cc3)cc2)[C@H](O)[C@@H](O)[C@@H]1O | 88.1% | 87.9% | inactive | 92% | inactive | 91.2% | 86.9% | 91.7% | –
3 | 36% | OC[C@H]1O[C@@H](Oc2ccc(COC(=S)Nc3ccc(C(F)(F)F)cc3)cc2)[C@H](O)[C@@H](O)[C@H]1O | 89.8% | 78.1% | inactive | 82.1% | inactive | 68.9% | 92% | 86.2% | –
4 | 36% | Cc1ccc(NC(=S)OCc2ccc(O[C@@H]3O[C@H](CO)[C@H](O)[C@H](O)[C@H]3O)cc2)cc1 | 110% | 95.8% | inactive | 96.3% | inactive | 96.9% | 97.1% | 103% | –
5 | 36% | OC[C@H]1O[C@H](Oc2ccc(COC(=S)Nc3ccc(C(F)(F)F)cc3)cc2)[C@@H](O)[C@@H](O)[C@@H]1O | 94.5% | 81.7% | inactive | 95% | inactive | 90.2% | 97.4% | 95.3% | –

The remaining lines, values behind:

Row | SMILES | Activity [7] | viability at 24 h, 50 µM [1] | viability at 50 µM (HepG2 [2]) | Activity (HepG2 [3]) | viability at 80 µM (HeLa [4]) | Activity (HeLa [5]) | viability at 80 µM (HepG2 [6]) | viability at 50 µM (HeLa [8]) | viability at 24 h, 80 µM [9] | also measured
6 | OC[C@H]1O[C@H](Oc2ccc(COC(=S)Nc3ccc(C(F)(F)F)cc3)cc2F)[C@@H](O)[C@@H](O)[C@@H]1O | 36% | 86.3% | 45.7% | 24.4% | 72.6% | 40.6% | 49% | 78.7% | 83.9% | viability at 80 µM (HeLa [10]): 56.8%; Activity (HeLa [11]): 23.9%; Activity (HepG2 [12]): 1.03%; Activity (HeLa [13]): 8.14%; Activity (HepG2 [14]): 18.3%; Activity (HeLa [15]): 8.15%; viability at 80 µM (HepG2 [16]): 76.3%; Activity (HepG2 [17]): 3.44%
7 | OC[C@H]1O[C@@H](Oc2ccc(COC(=S)Nc3ccc(C(F)(F)F)cc3)cc2Br)[C@H](O)[C@@H](O)[C@@H]1O | 36% | 93.5% | 87.3% | inactive | 92.1% | inactive | 61.8% | 95.3% | 92.7% | –
8 | OC[C@H]1O[C@@H](Oc2ccc(COC(=S)Nc3ccc(C(F)(F)F)cc3)cc2Br)[C@H](O)[C@@H](O)[C@H]1O | 36% | 86.8% | 82.2% | 20.9% | 88.2% | – | 86.8% | 97.5% | 89.2% | –
9 | OC[C@H]1O[C@H](Oc2ccc(COC(=S)Nc3ccc(C(F)(F)F)cc3)cc2Br)[C@@H](O)[C@@H](O)[C@@H]1O | 36% | 83.6% | 53.2% | 51.8% | 70.8% | 45.2% | 37.6% | 102% | 62.3% | viability at 80 µM (HeLa [10]): 50.6%; Activity (HeLa [11]): 23.3%; viability at 80 µM (HepG2 [18]): 73%; Activity (HepG2 [12]): 10.8%; viability at 100 µM (HepG2 [19]): 67%; Activity (HeLa [13]): 21.1%; Activity (HepG2 [14]): 37.4%; Activity (HeLa [15]): 4.98%; viability at 100 µM (HepG2 [20]): 46%; viability at 80 µM (HepG2 [21]): 64%; viability at 80 µM (HepG2 [16]): 50.7%; fold change (FC) (HepG2 [22]): 7; Activity (HepG2 [17]): 1.13%
10 | OC[C@H]1O[C@@H](Oc2ccc(COC(=S)Nc3ccc(C(F)(F)F)cc3)cc2F)[C@H](O)[C@@H](O)[C@H]1O | 36% | 97.3% | 88.9% | inactive | 96% | inactive | 86% | 94.6% | 87.9% | –
11 | COc1cccc2c1C(=O)c1c(O)c3c(c(O)c1C2=O)C[C@@](O)(C(=O)CO)C[C@@H]3O[C@H]1C[C@H](N)[C@H](O)[C@H](C)O1 [DOXORUBICIN] | – | – | – | – | – | – | – | – | – | viability at 2 µg/mL (HepG2 [23]): 100%
12 | OC[C@H]1O[C@@H](Oc2ccc(COC(=S)Nc3ccc(C(F)(F)F)cc3)cc2F)[C@H](O)[C@@H](O)[C@@H]1O | 36% | 88.9% | 88.6% | inactive | 100% | inactive | 86% | 96% | 90.8% | –
13 | O=C(Nc1ccc(C(F)(F)F)cc1)OCc1ccc(O[C@H]2O[C@H](CO)[C@@H](O)[C@H](O)[C@@H]2O)c(Br)c1 | – | – | – | – | – | – | 51.6% | – | – | –
